Read-outs that look alike come from different tables or passages of the source. Blank lines part the entries; values can stand above or below the compound they belong to.
How the values were obtained:
A1 receptor [1] = target: T1, A1 receptor (Cavia porcellus, UniProt P47745); test: A1 receptor binding with [3H]CPX in brain membranes (Table 4); set-up: species or system guinea pig
T1 construct: isolated perfused guinea pig heart; from tissue; host or cells: isolated perfused guinea pig heart
T1 sequence (P47745 1-326): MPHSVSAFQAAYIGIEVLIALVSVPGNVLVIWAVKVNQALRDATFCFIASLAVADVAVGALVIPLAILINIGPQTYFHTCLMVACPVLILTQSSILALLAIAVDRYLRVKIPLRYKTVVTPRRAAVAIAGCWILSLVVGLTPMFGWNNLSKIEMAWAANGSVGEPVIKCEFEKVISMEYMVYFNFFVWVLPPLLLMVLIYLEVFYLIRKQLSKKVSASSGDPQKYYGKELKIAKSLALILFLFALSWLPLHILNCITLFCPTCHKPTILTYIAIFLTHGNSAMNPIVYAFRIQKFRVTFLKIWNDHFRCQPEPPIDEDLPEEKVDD
From the text: Radioligand binding studies.
(§2) Values are mean ± SEM of triplicate determinations in each
of several (n) preparations.

[2] = test system: guinea pig tracheal muscle; test: Relaxation of tracheal muscle
From the text: (§1) However, that can be useful in treating conditions that indicate short-acting treatments.

A2 receptor [3] = target: T2, A2 receptor (Cavia porcellus, UniProt P46616); test: Antagonism of A2 receptor-mediated coronary vasodilation (coronary conductance) caused by adenosine, isolated perfused heart; set-up: species or system guinea pig
T2 construct: isolated perfused guinea pig heart; from tissue; host or cells: isolated perfused guinea pig heart (coronary circulation)
T2 sequence (P46616 whole entry, the tested form may be a part): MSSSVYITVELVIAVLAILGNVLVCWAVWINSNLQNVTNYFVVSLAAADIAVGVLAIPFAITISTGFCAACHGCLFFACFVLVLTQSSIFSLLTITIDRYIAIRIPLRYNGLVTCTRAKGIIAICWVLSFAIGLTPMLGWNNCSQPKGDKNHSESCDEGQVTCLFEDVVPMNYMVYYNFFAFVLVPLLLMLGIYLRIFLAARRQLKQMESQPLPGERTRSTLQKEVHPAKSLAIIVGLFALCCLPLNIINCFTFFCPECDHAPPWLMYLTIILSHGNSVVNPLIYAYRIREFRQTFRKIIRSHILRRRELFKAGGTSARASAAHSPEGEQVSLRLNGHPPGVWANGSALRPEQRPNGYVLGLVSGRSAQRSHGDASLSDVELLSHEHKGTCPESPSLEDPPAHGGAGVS
From the text: The values are the mean±SEM from five guinea pig hearts.
of a maximum coronary vasodilation caused by adenosine. Values in

A2 adenosine receptor [4] = target: T3, A2 adenosine receptor (Cavia porcellus, UniProt P46616); test: A2 receptor binding with [3H]CGS 21,860 in striatum membranes (Table 5); set-up: species or system guinea pig; conditions: mean ± S.E.M., read-out: K1, A2 (striatum)
T3 construct: from tissue; host or cells: guinea pig striatum membranes
T3 sequence (P46616 whole entry): as the sequence (P46616 whole entry, the tested form may be a part) above
From the text: (§3) Values are mean ± S.E.M. of triplicate determinations in
each of four preparations.

A2 receptor [5] = target: T4, A2 receptor (Rattus norvegicus, UniProt P30543); test: A2 receptor binding with [3H]NECA in PC12 cell membranes; conditions: mean ± SEM (n), read-out: Ki, PC-12
T4 construct: endogenous in cells; host or cells: PC12 cell membranes
T4 sequence (P30543 whole entry): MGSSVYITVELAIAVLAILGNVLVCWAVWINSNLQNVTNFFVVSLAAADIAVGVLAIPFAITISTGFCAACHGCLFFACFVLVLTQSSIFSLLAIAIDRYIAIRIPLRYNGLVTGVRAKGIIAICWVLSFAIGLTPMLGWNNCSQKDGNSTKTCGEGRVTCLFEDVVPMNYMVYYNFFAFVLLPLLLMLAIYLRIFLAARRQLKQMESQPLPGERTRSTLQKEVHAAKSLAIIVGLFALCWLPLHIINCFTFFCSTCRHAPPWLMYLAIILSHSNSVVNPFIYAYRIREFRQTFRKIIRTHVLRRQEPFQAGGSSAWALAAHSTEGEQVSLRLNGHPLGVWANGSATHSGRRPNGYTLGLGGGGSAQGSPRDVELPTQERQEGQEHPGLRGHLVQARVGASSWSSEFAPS
Description: Radioligand binding studies.
A2 receptor binding was carried out with [^3 H]NECA in PC12 cell
membranes. Values are mean ± SEM of triplicate determinations in each
of several (n) preparations.

A1 adenosine receptor [6] = target: T5, A1 adenosine receptor (Cavia porcellus, UniProt P47745); test: A1 receptor binding with [3H]CPX in forebrain membranes (Table 5); set-up: guinea pig forebrain (A1 receptor); from tissue; host or cells: guinea pig forebrain membranes; species or system guinea pig
From the text: as §3
each of four preparations.

A1 receptor [7] = target: T1, A1 receptor; test: Antagonism of A1 receptor-mediated negative dromotropic effect (S-H interval prolongation) of CCPA, Schild analysis, isolated perfused heart; set-up: species or system guinea pig; conditions: for Slope of Schild plot: mean ± S.E.M.
From the text: Potency of various alkylxanthines to antagonize A1
cardiac response: results of Schild analysis.
Cardiac response: antagonism of the negative dromotropic effect of the
selective A1 agonist CCPA.

A1 receptor [8] = target: T1, A1 receptor; test: S-H interval prolongation by adenosine in isolated heart, antagonism by ENX; set-up: species or system guinea pig
From the text: The height of each bar graph presents the mean±SEM of 4 experiments.

guinea pig hearts = test: Left ventricular pressure and dP/dt (inotropic effect) in isolated hearts
From the text: Identical results were obtained in three other hearts.

rats = test: Cumulative urine output (diuretic activity) in rats; type: in vivo, rat
A1 receptor [9] = target: T6, A1 receptor (Mesocricetus auratus, UniProt A0A1U8BVR4); test: A1 receptor binding with [3H]CPX in intact DDT1 MF2 cells
T6 sequence (A0A1U8BVR4 1-326): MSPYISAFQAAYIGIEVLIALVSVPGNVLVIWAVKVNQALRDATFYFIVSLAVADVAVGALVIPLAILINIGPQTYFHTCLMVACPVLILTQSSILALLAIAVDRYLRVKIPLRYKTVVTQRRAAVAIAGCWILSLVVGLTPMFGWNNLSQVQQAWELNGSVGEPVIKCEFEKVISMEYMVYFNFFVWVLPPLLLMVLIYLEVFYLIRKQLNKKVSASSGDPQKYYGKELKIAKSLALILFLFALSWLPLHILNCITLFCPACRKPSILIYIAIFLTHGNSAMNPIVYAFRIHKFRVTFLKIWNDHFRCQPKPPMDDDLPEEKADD
From the text: Radioligand binding studies.
as §2
of several (n) preparations.

[10] = target: T7, rat brain adenosine A2 receptors (Rattus norvegicus, UniProt P30543); test: Antagonism of radioligand binding to rat brain adenosine A2 receptors
T7 construct: rat brain adenosine A1 and A2 receptors; from tissue; host or cells: rat brain
T7 sequence (P30543 whole entry): as the sequence (P30543 whole entry) above
From the text: (§4) rat brain adenosine A1 and A2 receptors ("IC50 "* values)
(§5) *"IC50 " refers to the concentration at which radioligand binding to
receptors was 50% inhibited.

[11] = test system: negative dromotropic effect of carbachol or MgCl2; test: Specificity: negative dromotropic effect of carbachol or MgCl2 in isolated heart; set-up: species or system guinea pig; conditions: ENX 2 nM, 2 μM
From the text: The height of each bar graph presents the mean±SEM of 4 experiments. Only the S--H interval prolongation caused by adenosine was antagonized by ENX.

phosphodiesterase = test: Phosphodiesterase activity in homogenates of DDT1 MF-2 cells; type: biochemical; conditions: DDT1 MF-2 homogenate, 45 min, 30° C.
[12] = target: T8, rat brain adenosine A1 receptors (Rattus norvegicus, UniProt P25099); test: Antagonism of radioligand binding to rat brain adenosine A1 receptors
T8 construct: rat brain A1 adenosine receptors; from tissue; host or cells: rat brain
T8 sequence (P25099 1-326): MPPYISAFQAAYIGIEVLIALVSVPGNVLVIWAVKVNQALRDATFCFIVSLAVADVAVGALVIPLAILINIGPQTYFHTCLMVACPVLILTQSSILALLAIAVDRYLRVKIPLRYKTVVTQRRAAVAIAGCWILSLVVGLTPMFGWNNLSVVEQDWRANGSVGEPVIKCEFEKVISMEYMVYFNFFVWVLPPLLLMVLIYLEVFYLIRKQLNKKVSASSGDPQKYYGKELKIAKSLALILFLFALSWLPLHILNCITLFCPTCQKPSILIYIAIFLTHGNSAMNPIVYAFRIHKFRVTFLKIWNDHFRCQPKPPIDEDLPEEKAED
From the text: as §4, §5
receptors was 50% inhibited.

A1-adenosine receptor [13] = target: T9, A1-adenosine receptor (Mesocricetus auratus, UniProt A0A1U8BVR4); conditions: EC50, text to Table 8, DDT cells
T9 sequence (A0A1U8BVR4 1-326): T6 sequence (A0A1U8BVR4 1-326)

A1 adenosine receptor [14] = target: A1 adenosine receptor (Homo sapiens, UniProt P30542); test: A1 adenosine receptor agonist potency and selectivity (summary); conditions: racemic isomers
A1 adenosine receptor (Homo sapiens, UniProt P30542), sequence (P30542 whole entry): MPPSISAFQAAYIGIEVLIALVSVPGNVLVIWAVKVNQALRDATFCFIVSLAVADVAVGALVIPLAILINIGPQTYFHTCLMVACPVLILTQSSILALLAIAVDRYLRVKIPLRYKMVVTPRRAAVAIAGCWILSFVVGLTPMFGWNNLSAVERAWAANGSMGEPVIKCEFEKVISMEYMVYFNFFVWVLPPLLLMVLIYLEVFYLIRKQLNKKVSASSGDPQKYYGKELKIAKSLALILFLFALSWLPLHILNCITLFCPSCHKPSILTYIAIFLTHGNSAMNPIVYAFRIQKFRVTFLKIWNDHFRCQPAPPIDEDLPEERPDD

A1-adenosine receptor [15] = conditions: 1 μM alone; 10 min
A1-adenosine receptor [16] = conditions: 1 μM (-)isoproterenol
[17] = test system: paroxysmal supraventricular tachycardia (PSVT); conditions: in vivo; cited from earlier work
A2 adenosine receptor [18] = test: Hypotensive (A2) effect in whole animals; type: in vivo
A1 adenosine receptor [19] = target: T5, A1 adenosine receptor; test: Slowing of A-V conduction (A1 effect) versus coronary vasodilation (A2 effect); set-up: slowing of A--V (A1 effect) conduction; from tissue
[20] = target: T10, rat brain A1 adenosine receptors (Rattus norvegicus, UniProt P25099); test: Equilibrium dissociation constants for rat brain A1 adenosine receptors; type: binding; conditions: Table 6
T10 construct: rat brain A1 adenosine receptors; from tissue; host or cells: rat brain

[21] = Metabolism of ENX enantiomer; type: in vitro ADME
A1 adenosine receptor [22] = target: T11, A1 adenosine receptor (Rattus norvegicus, UniProt P25099); test: Biological activity and duration of action of ENX enantiomers; type: in vivo; conditions: for duration of action: S- vs R-enantiomer
T11 construct: from tissue; host or cells: whole animal
T11 sequence (P25099 1-326): T8 sequence (P25099 1-326)

[23] = test system: serum cholesterol and heparin precipitating β-lipoproteins; test: Serum cholesterol and heparin precipitating β-lipoproteins in mice; type: in vivo; conditions: 100 mg/kg per os
hydrated rat = test: Saluretic/kaluretic activity in hydrated rat; type: in vivo; conditions: 30 mg/kg per os
From the text: as §1

Compound: CCCn1c(=O)c2[nH]c(C3CC4CC3C3OC43)nc2n(CCC)c1=O (racemic) [ENX, 1,3-dipropyl-8-{3-oxatricyclo[3.1.2.0^2,4]oct-6(7)-yl}-xanthine]
Ki (A1 receptor [1]): 0.45 ± 0.22 nM
tracheal smooth muscle relaxation / bronchodilation [2]: relax tracheal smooth muscle
IC50 for A2 receptor-mediated coronary vasodilation (A2 receptor [3]): no effect
inhibition at 50 µM (A2 receptor [3]; read-out: inhibition of coronary vasodilation): 0%
Ki (A2 adenosine receptor [4]): 360 ± 36 nM
Ki (A2 receptor [5]): 11700 nM
Ki (A1 adenosine receptor [6]): 0.45 ± 0.13 nM
Kb (A1 receptor [7]): 3.6 nM
Slope of Schild plot (A1 receptor [7]): -0.91 ± 0.06
antagonism of S-H prolongation caused by adenosine (A1 receptor [8]; ENX 2 nM, 2 μM, adenosine 4 μM): did antagonize
effect on S-H interval prolongation caused by adenosine (A1 receptor [8]; ENX 0.4 μM with adenosine 4 μM): completely inhibited
stimulus-to-His bundle interval, ENX alone (guinea pig hearts; ENX alone, up to 200 μM): no significant changes
LVP or dP/dt (guinea pig hearts; normoxic hearts, ENX 2-200 μM): no significant changes
diuretic potency compared with furosemide (Lasix) (rats; rat, in vivo): at least as high as the potency of furosemide
Ki (A1 receptor [9]): 0.22 ± 0.03 nM
IC50 [10]: 2100 nM
antagonism of negative dromotropic effect of carbachol or MgCl2 [11]: did not antagonize
phosphodiesterase inhibition (phosphodiesterase): does not inhibit phosphodiesterase
IC50 [12]: 1.65 nM

EC50 (A1-adenosine receptor [13]): 1 to 2 nM
A1 agonist potency and selectivity (A1 adenosine receptor [14]): potent and highly selective agonists
Compound: OC[C@H]1O[C@@H](n2cnc3c(N[C@H]4C[C@@H]5C[C@H]4[C@H]4O[C@@H]54)ncnc32)[C@H](O)[C@@H]1O (relative stereo) [N^6-(endo-5,6-epoxynorborn-2-yl) adenosine]

EC50 (A1-adenosine receptor [13]): 403 nM
Compound: [O-][n+]1cnc2c(ncn2[C@@H]2O[C@H](CO)[C@@H](O)[C@H]2O)c1N[C@@H]1C[C@@H]2C[C@H]1[C@H]1O[C@@H]21 (relative stereo) [N^6-(exo-5,6-epoxynorborn-2-yl) adenosine-1-oxide]

EC50 (A1-adenosine receptor [13]): 1 to 2 nM
A1 agonist potency and selectivity (A1 adenosine receptor [14]): potent and highly selective agonists
Compound: OC[C@H]1O[C@@H](n2cnc3c(N[C@@H]4C[C@@H]5C[C@H]4[C@H]4O[C@@H]54)ncnc32)[C@H](O)[C@@H]1O (relative stereo) [N^6-(exo-5,6-epoxynorborn-2-yl) adenosine]

Compound: CC(C)NC[C@H](O)c1ccc(O)c(O)c1 [(-)Isoproterenol, reference compound]
cAMP accumulation increase above basal level (A1-adenosine receptor [15]): 57 fold
stimulated cAMP accumulated (A1-adenosine receptor [16]): 458 ± 41 pmol cAMP formed per 10 minutes

Compound: Nc1ncnc2c1ncn2[C@@H]1O[C@H](CO)[C@@H](O)[C@H]1O [Adenosine]
effectiveness in terminating PSVT [17]: > 90%

Compound: OC[C@H]1O[C@@H](n2cnc3c(NC4CCCC4)ncnc32)[C@H](O)[C@@H]1O [CPA, N^6 -cyclopentyladenosine, reference compound]
EC50 (A1-adenosine receptor [13]): 1 to 2 nM

Ki (A1 receptor [1]; read-out: Ki, Brain): 41 ± 13 nM
Compound: Cn1c(=O)c2[nH]c(C3CCCC3)nc2n(C)c1=O [CPT, 8cyclopentyl-1,3-dimethylxanthine]

Compound: CCCn1c(=O)c2[nH]c(C3CCCC3)nc2n(CCC)c1=O [CPX, 8-cyclopentyl-1,3-dipropylxanthine]
Slope of Schild plot (A1 receptor [7]): -0.81 ± 0.03
Ki (A1 receptor [9]): 0.13 ± 0.01 nM

Compound: CC(C)Cn1c(=O)n(C)c(=O)c2[nH]cnc21 [IBMX, isobutylmethylxanthine, reference compound]
phosphodiesterase inhibition (phosphodiesterase): inhibits phosphodiesterase

Ki (A1 receptor [1]; read-out: Ki, Brain): 3.8 ± 0.21 nM
IC50 (A2 receptor [3]): 7100 nM
Ki (A2 adenosine receptor [4]): 22 ± 6.9 nM
Kb (A1 receptor [7]; Schild analysis, numbers in parentheses are minimum and maximum KB values, read-out: KB, equilibrium dissociation constant): 1.6 nM
Slope of Schild plot (A1 receptor [7]): -0.89 ± 0.11
Ki (A1 receptor [9]; read-out: Ki, DDT1 MF2): 0.18 ± 0.05 nM
Compound: CCCn1c(=O)c2[nH]c(C34CC5CC(CC3C5)C4)nc2n(CCC)c1=O [NAX, 1,3dipropyl-8-(3-noradamantyl)xanthine]

hypotensive (A2) effect (A2 adenosine receptor [18]): no discernable hypotensive (A2) effect
Compound: OC[C@H]1O[C@@H](n2cnc3c(N[C@H]4C[C@@H]5C[C@H]4[C@H]4O[C@@H]54)ncnc32)[C@H](O)[C@@H]1O [N^6-(2S-endo-5,6-epoxynorborn-2-yl) adenosine]
potency for slowing of A-V conduction (A1) over coronary vasodilation (A2) (A1 adenosine receptor [19]): more than 100 fold

Compound: CCCn1c(=O)c2[nH]c([C@@H]3C[C@H]4C[C@@H]3[C@@H]3O[C@H]43)nc2n(CCC)c1=O [R-ENX]
tracheal smooth muscle relaxation / bronchodilation [2]: bronchodilators
relaxation of spontaneous tone in trachea ([2]; guinea pig trachea): induce relaxation of spontaneous tone
Ki [20]: 2.1 nM
metabolism [21]: rapidly degraded or metabolized
IC50 [10]: 2600 nM
IC50 [12]: 2.7 nM
duration of action (A1 adenosine receptor [22]): very short duration of action as compared to the S-enantiomer

Compound: CCCn1c(=O)c2[nH]c([C@H]3C[C@@H]4C[C@H]3[C@H]3O[C@@H]43)nc2n(CCC)c1=O [S-ENX]
tracheal smooth muscle relaxation / bronchodilation [2]: bronchodilators
relaxation of constricted tracheal muscle ([2]; guinea pig, 100 mg/kg per os): relaxed constricted guinea pig tracheal muscle
Ki [20]: 0.98 nM
serum cholesterol and heparin precipitating β-lipoproteins [23]: reduced serum cholesterol and heparin precipitating β-lipoproteins
diuretic activity (cumulative urine output) (rats; 0.1 mg/kg i.v., 2 hours, rats): more potent than the R-enantiomer of ENX or a racemic mixture of R-and S-enantiomers of ENX
IC50 [10]: 9000 nM
IC50 [12]: 1.15 nM
kaluretic activity (hydrated rat): Moderate kaluretic activity
duration of action (A1 adenosine receptor [22]; listed as S-enantiomer): longer duration of action than the R-enantiomer
duration of action (A1 adenosine receptor [22]; listed as S-enantiomer of ENX): longer
share of the biological activity of racemic ENX (A1 adenosine receptor [22]; in vivo): 80-90%
